This is an account of results in patent publication US20240287022A1 (Merck Sharp & Dohme LLC, priority 2021, published 2024).

Sequence of recombinant IL4I1 (Q96RQ9 22-567): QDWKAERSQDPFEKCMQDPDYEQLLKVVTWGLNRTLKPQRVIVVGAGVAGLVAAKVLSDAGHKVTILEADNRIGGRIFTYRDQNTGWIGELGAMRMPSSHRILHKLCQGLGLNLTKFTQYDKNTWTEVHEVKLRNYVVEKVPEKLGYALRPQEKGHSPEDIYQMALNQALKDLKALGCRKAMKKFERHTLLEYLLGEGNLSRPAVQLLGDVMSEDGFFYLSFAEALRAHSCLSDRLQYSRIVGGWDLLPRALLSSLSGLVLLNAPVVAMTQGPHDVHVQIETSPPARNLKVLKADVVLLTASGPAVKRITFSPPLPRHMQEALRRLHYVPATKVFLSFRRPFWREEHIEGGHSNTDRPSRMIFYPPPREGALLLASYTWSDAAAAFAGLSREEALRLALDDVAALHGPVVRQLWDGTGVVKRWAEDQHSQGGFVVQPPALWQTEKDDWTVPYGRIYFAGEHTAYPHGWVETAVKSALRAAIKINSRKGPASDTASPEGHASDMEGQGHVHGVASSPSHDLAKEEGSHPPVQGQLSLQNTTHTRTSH

This assay deals with recombinant IL4I1 (Homo sapiens (Human), UniProt Q96RQ9). Put plainly: IL4I1 Enzymatic Assay (Amplex Red/HRP coupled H2O2 detection). Format: biochemical. To be noted: 1 nM IL4I1, 1 mM each Phe/Tyr/Trp, four-hour pre-incubation, 120 minutes reaction, top compound concentration of 10000 nM. How it is done:
Interleukin 4 inducible protein 1 (IL4I1) is an L-amino oxidase that catalyzes the oxidation of aromatic residues (Phe, Trp and Tyr): L-amino acid+H2O+O2→2-oxo acid+NH3+H2O2. Equal molar of H2O2 and the corresponding alpha-ketoacid are produced when IL4I1 and substrate are added. In this assay, the hydrogen peroxide generated by IL4I1 are then detected through a coupled reaction with Amplex Red (10-acetyl-3,7-dihydroxyphenoxazine) and […] (HRP) to produce Resorufin product that could be detected in the form of fluorescence signals. The assessment of the inhibitory effect of small molecules (EC50) on IL4I1 is measured by the effectiveness of the compounds to inhibit the production of H2O2.
Using this assay, the potency (EC50) of each compound was determined from a ten-point (1:3 serial dilution; top compound concentration of 10000 nM) titration curve using the following outlined procedure. To each well of a black flat-bottom Greiner (Cat #781076) 384 well-plate, 25 nL of compound (0.1% DMSO in final assay volume of 25 μL) was dispensed, followed by the addition of 12.5 μL of 1× assay buffer (50 mM Hepes 7.0 and 0.005% Tween20 (Sigma, Cat #P8341; low peroxide grade)) containing 2 nM of recombinant IL4I1 (R&D Systems, Cat #5684-AO-020). Plates were placed in an ambient temperature humidified chamber for a four-hour pre-incubation with compound. Subsequently, each reaction was initiated by the addition of 12.5 μL 1× assay buffer containing 2 mM of each aromatic amino acids (Phe/Tyr/Trp), 0.1 mM Amplex Red and 2 U/mL of HRP. The final reaction in each well of 25 μL consists of 1 nM of IL4I1, 1 mM of each residues (Phe, Tyr and Trp), 0.05 mM Amplex Red and 1 U/mL of HRP. It should be noted that the concentrations of Amplex Red and HRP used here are in excess such that the conversion of H2O2 to Resorufin product occurs instantaneously and non-rate limiting. Reactions were allowed to proceed for 120 minutes followed by fluorescence readout on a Spectramax with the following set parameters: 544 nm excitation/590 nm emission, 570 nm cutoff (EnVision is an alternative reader). Dose-response curves were generated by plotting percent effect (% product conversion; Y-axis) vs. Log10 compound concentrations (X-axis). EC50 values were calculated using a non-linear regression, four-parameters sigmoidal dose-response model.
For the compound `O=c1[nH]c2ccccc2cc1Cc1ccc(N2CCCS2(=O)=O)nc1` [Example 46, 3-((6-(1,1-dioxidoisothiazolidin-2-yl)pyridin-3-yl)methyl)quinolin-2(1H)-one], the half-maximal effective concentration (EC50) is 5.9 nM.
Then `CCS(=O)(=O)Nc1ccc(Cc2cc3ccccc3[nH]c2=O)cn1` [Example 47, N-(5-((2-oxo-1,2-dihydroquinolin-3-yl)methyl)pyridin-2-yl)ethanesulfonamide], with 10.8 nM.
Next, `CS(=O)(=O)Nc1ccc(Cc2cc3ccccc3[nH]c2=O)cn1` [Example 48, N-(5-((2-oxo-1,2-dihydroquinolin-3-yl)methyl)pyridin-2-yl)methanesulfonamide]: 21.4 nM.
Then `CC1(C)CN(c2ccc(Cc3cc4ccccc4[nH]c3=O)cn2)C(=O)O1` [Example 52, 5,5-dimethyl-3-(5-((2-oxo-1,2-dihydroquinolin-3-yl)methyl)pyridin-2-yl)oxazolidin-2-one], with 10.7 nM; and `O=C1OCCN1c1ncc(Cc2cc3ccccc3[nH]c2=O)cc1Cl` [Example 53], with 5.6 nM.
For the compound `CC1(Nc2ccc(Cc3cc4ccccc4[nH]c3=O)cc2)CNC1` [Example 58, 3-(4-((3-methylazetidin-3-yl)amino)benzyl)quinolin-2(1H)-one], the 50% effective concentration (EC50) was 9.8 nM.
Next, `O=c1[nH]c2ccccc2cc1Cc1ccc(N2CCNCC2)cc1` [Example 59, 3-(4-(piperazin-1-yl)benzyl)quinolin-2(1H)-one]: 23.6 nM; `O=C1OCCN1c1ccc(Cc2cc3cnccc3[nH]c2=O)cc1` [Example 61, 3-(4-((2-oxo-1,2-dihydro-1,6-naphthyridin-3-yl)methyl)phenyl)oxazolidin-2-one]: 2.7 nM.
As for `O=c1[nH]c2ccccc2cc1Cc1ccc(C2CNC2)cc1` [Example 63, 3-(4-(azetidin-3-yl)benzyl)quinolin-2(1H)-one], the EC50 came to 9.7 nM.
Next, `CC(=O)NCc1ccc(Cc2cc3ccccc3[nH]c2=O)cc1Cl` [Example 66, N-(2-chloro-4-((2-oxo-1,2-dihydroquinolin-3-yl)methyl)benzyl)acetamide]: 2 nM.
Next, `CC(=O)NCc1ncc(Cc2cc3ccccc3[nH]c2=O)cc1Cl` [Example 68, N-((3-chloro-5-((2-oxo-1,2-dihydroquinolin-3-yl)methyl)pyridin-2-yl)methyl)acetamide]: 12.3 nM.
Next, `O=c1[nH]c2ccccc2cc1Cc1cc(F)c2c(c1)CNC2` [Example 69, 3-((7-fluoroisoindolin-5-yl)methyl)quinolin-2(1H)-one]: 10.6 nM; `NS(=O)(=O)c1ccc(Cc2cc3ccccc3[nH]c2=O)cc1Cl` [Example 70, 2-chloro-4-((2-oxo-1,2-dihydroquinolin-3-yl)methyl)benzenesulfonamide]: 8.9 nM.
On to `NS(=O)(=O)c1c(Cl)cc(Cc2cc3ccccc3[nH]c2=O)cc1Cl` [Example 71, 2,6-dichloro-4-((2-oxo-1,2-dihydroquinolin-3-yl)methyl)benzenesulfonamide], for which the EC50 worked out at 3.7 nM.
Next, `NS(=O)(=O)Cc1ccc(Cc2cc3ccccc3[nH]c2=O)cc1` [Example 72, (4-((2-oxo-1,2-dihydroquinolin-3-yl)methyl)phenyl)methanesulfonamide]: 2.2 nM; `CS(=O)(=O)NCc1ccc(Cc2cc3ccccc3[nH]c2=O)cc1` [Example 73, N-(4-((2-oxo-1,2-dihydroquinolin-3-yl)methyl)benzyl)methanesulfonamide]: 6.4 nM.
Take `COc1cc(CNS(C)(=O)=O)ccc1Cc1cc2ccccc2[nH]c1=O` [Example 74, N-(3-methoxy-4-((2-oxo-1,2-dihydroquinolin-3-yl)methyl)benzyl)methanesulfonamide]: the EC50 was 6.9 nM.
Then `O=C1CCc2ccc(Cc3cc4ccccc4[nH]c3=O)cc21` [Example 75, 3-((3-oxo-2,3-dihydro-1H-inden-5-yl)methyl)quinolin-2(1H)-one], with 0.9 nM.
`O=C1NCCc2ccc(Cc3cc4ccccc4[nH]c3=O)cc21` [Example 77]: the EC50 stood at 4.7 nM.
Next, `O=C1NCCc2cc(Cc3cc4ccccc4[nH]c3=O)ccc21` [Example 78, 3-((1-oxo-1,2,3,4-tetrahydroisoquinolin-6-yl)methyl)quinolin-2(1H)-one]: 10.7 nM; `CC1(c2ccc(Cc3cc4ccccc4[nH]c3=O)cc2)CNC1` [Example 79, 3-(4-(3-methylazetidin-3-yl)benzyl)quinolin-2(1H)-one]: 11.5 nM; `CC(C)(O)c1ccc(Cc2cc3ccccc3[nH]c2=O)cc1Cl` [Example 80, 3-(3-chloro-4-(2-hydroxypropan-2-yl)benzyl)quinolin-2(1H)-one]: 3.3 nM.
Next, `O=c1[nH]c2ccccc2cc1Cc1ccc2c(c1)S(=O)(=O)CC2` [Example 81, 3-((1,1-dioxido-2,3-dihydrobenzo[b]thiophen-6-yl)methyl)quinolin-2(1H)-one]: 2.4 nM.
Next, `CC(=O)NCc1ncc(Cc2cc3ccccc3[nH]c2=O)cc1F` [Example 82]: 10 nM; `CC(=O)N1Cc2ccc(Cc3cc4ccccc4[nH]c3=O)cc2C1` [Example 83, 3-((2-acetylisoindolin-5-yl)methyl)quinolin-2(1H)-one]: 3.8 nM; `CC(=O)NCc1ccc(Cc2cc3ccccc3[nH]c2=O)cn1` [Example 84, N-((5-((2-oxo-1,2-dihydroquinolin-3-yl)methyl)pyridin-2-yl)methyl)acetamide]: 13.8 nM.
For `O=c1[nH]c2ccccc2cc1Cc1ccc(OC2CCOCC2)nc1` [Example 85, 3-((6-((tetrahydro-2H-pyran-4-yl)oxy)pyridin-3-yl)methyl)quinolin-2(1H)-one], the EC50 was found to be 8.7 nM.
Then `CC(=O)c1cccc(Cc2cc3ccccc3[nH]c2=O)c1` [Example 86, 3-(3-acetylbenzyl)quinolin-2(1H)-one], with 0.9 nM.
Next, `O=C1NCc2cc(F)c(Cc3cc4ccccc4[nH]c3=O)cc21` [Example 87, 3-((6-fluoro-3-ixoisoindolin-5-yl)methyl)quinolin-2(1H)-one]: 4.2 nM; `O=c1[nH]c2ccccc2cc1Cc1ccc(OCC2CC2)nc1` [Example 88, 3-((6-(cyclopropylmethoxy)pyridin-3-yl)methyl)quinolin-2(1H)-one]: 1.3 nM.
Then `O=C1COc2ncc(Cc3cc4ccccc4[nH]c3=O)cc2N1` [Example 89, 7-((2-oxo-1,2-dihydroquinolin-3-yl)methyl)-1H-pyrido[2,3-b][1,4]oxazin-2(3H)-one], with 4.5 nM.
Consider `CS(=O)(=O)NCc1ncc(Cc2cc3ccccc3[nH]c2=O)cc1Cl` [Example 91, N-((3-chloro-5-((2-oxo-1,2-dihydroquinolin-3-yl)methyl)pyridin-2-yl)methyl)methanesulfonamide], for which the EC50 came out at 10.9 nM.
Next, `N#Cc1cnn2ccc(Cc3cc4ccccc4[nH]c3=O)cc12` [Example 92, 5-((2-oxo-1,2-dihydroquinolin-3-yl)methyl)pyrazolo[1,5-a]pyridine-3-carbonitrile]: 1.7 nM; `CC(C)(O)CN1Cc2ccc(Cc3cc4ccccc4[nH]c3=O)cc2C1=O` [Example 94, 3-((2-(2-hydroxy-2-methylpropyl)-3-oxoisoindolin-5-yl)methyl)quinolin-2(1H)-one]: 29.6 nM.

As a reminder, the EC50 is the concentration at which the effect is half-maximal.
